Assay results from US20230132823A1, “BI-FUNCTIONAL COMPOUNDS AND METHODS FOR TARGETED UBIQUITINATION OF ANDROGEN RECEPTOR” (MONTELINO THERAPEUTICS, INC., priority 2020, published 2023).
Where two headings read alike, the source gives them in different places. Where a SMILES comes first, the peptide text is derived from it. [ ]: non-standard residue; d: D form. The star is where a group is joined. ξ: configuration not given here. X1 = O=C(COc1c(-c2csc(N3CCOCC3)n2)ccc(F)c1F)NCCCCCCN*; Dip = N[C@H](C(=O)O)C(c1ccccc1)c1ccccc1; Chg = N[C@H](C(=O)O)C1CCCCC1; NMeA = CN[C@@H](C)C(=O)O; ξP = O=C(O)C1CCCN1

Legend:
22Rv1-Enz^R cells = test: 22Rv1-Enz^R cell proliferation (cell count, Experimental Example 3); format: cell-based, human
Description: (§1) The human prostate cancer cell line, 22Rv1 has been reported to express a high level of AR-V7. Thus, 22Rv1 was seeded at 50,000 cells/well on a 24-well plate in quadruplicates and treated with test compound in concentrations ranging up to 20 μM for four days. Standard culture media was RPMI-1640 supplemented with 10% fetal bovine serum. The test compound initially was dissolved in DMSO at 50 mM. This stock solution was then diluted as needed for the indicated concentrations. At the end of the four-day period, cells were harvested using 1% trypsin and counted using an automated cell counter.
(§2) Cell Culture. Human CaP cell lines, LNCaP, 22Rv1, VCaP, PC3, and DU145 are obtained from the American Type Culture Collection (ATCC) and maintained in the standard culture media: RPMI-1640 supplemented with 10% fetal bovine serum (FBS). LNCaP, 22Rv1, and VCaP are androgen-responsive cell lines, while PC3 and DU145 are not. To establish SAT resistant CaP cell lines, LNCaP, 22Rv1, and VCaP are treated continuously with 10-50 μM abiraterone, apalutamide, darolutamide, or enzalutamide. After 3-6 months, stable cell lines are established and designated as LNCaP-Abi^R, LNCaP-Apa^R, LNCaP-Daro^R, LNCaP-Enz^R, VCaP-Abi^R, VCaP-Apa^R, VCaP-Daro^R, VCaP-Enz^R, 22Rv1-Abi^R, 22Rv1-Apa^R, 22Rv1-Daro^R and 22Rv1-Enz^R. Unless otherwise specified, the standard culture media for these SAT-resistant cell lines included 10 μM of their respective SAT. For the proteasome inhibitor study, the inhibitors MG132 and Epoxomicin are used. The E3 ligase inhibitors Heclin, Nutlin 3a, Thalidomide, and VH298 are used. Cell lines obtained from ATCC are confirmed by checking their morphology using optical microscopy, establishing baselines for cell proliferation, verifying species of origin using isoenzymology, and characterizing the cell's DNA fingerprint using short tandem repeat (STR) profiling. Mycoplasma contamination is also assessed using a PCR based detection system.

PC3 = PC3 cell proliferation; format: cell-based, human; conditions: AR-negative cell line; 1 μM
Description: as §1
(§3) Cell Culture. Human CaP cell lines, LNCaP, 22Rv1, VCaP, PC3, and DU145 are obtained from the American Type Culture Collection (ATCC) and maintained in the standard culture media: RPMI-1640 supplemented with 10% fetal bovine serum (FBS). LNCaP, 22Rv1, and VCaP are androgen-responsive cell lines, while PC3 and DU145 are not. To establish SAT resistant CaP cell lines, LNCaP, 22Rv1, and VCaP are treated continuously with 10-50 μM abiraterone, apalutamide, darolutamide, or enzalutamide. […] Mycoplasma contamination is also assessed using a PCR based detection system.

LNCaP = LNCaP cell proliferation; format: cell-based, human; conditions: androgen-responsive cell line; 1 μM
Description: as §1, §3

AR-V7 = biological target: T1, AR-V7 (Homo sapiens, UniProt P10275); test: Immunoblot analysis of AR-V7 protein in CaP cells (Experimental Example 3); format: cell-based; set-up: endogenous in cells; host or cells: 22Rv1 (also VCaP, LNCaP and SAT-resistant sublines)
T1 sequence (P10275 1-644 isoform P10275-3): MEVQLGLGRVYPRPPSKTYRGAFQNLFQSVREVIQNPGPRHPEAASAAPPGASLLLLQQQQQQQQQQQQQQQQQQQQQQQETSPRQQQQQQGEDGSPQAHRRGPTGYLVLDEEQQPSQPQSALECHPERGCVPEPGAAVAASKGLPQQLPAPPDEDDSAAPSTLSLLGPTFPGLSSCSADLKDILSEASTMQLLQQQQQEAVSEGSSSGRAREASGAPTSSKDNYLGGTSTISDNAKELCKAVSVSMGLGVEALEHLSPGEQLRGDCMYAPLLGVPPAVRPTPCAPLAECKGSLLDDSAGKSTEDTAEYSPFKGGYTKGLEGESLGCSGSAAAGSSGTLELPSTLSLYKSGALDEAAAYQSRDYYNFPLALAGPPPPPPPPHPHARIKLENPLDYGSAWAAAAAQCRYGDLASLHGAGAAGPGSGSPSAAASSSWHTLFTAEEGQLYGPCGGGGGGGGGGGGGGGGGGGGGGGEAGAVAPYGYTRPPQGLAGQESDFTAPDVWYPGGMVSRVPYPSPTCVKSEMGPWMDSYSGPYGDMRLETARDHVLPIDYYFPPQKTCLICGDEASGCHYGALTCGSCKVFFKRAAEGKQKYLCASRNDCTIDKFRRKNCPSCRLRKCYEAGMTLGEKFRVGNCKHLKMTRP
Description: as §2
Immunoblot Analysis. CaP cells are collected and lysed with the lysis buffer (20 mM Tris-HCl (pH 7.5), 150 mM NaCl, 1 mM Na2EDTA, 1 mM EGTA, 1% Triton, 2.5 mM sodium pyrophosphate, 1 mM beta-glycerophosphate, 1 mM Na3VO4, and 1 μg/ml leupeptin) containing 1 mM phenylmethylsulfonyl fluoride (PMSF). Cell lysates are then centrifuged and protein in the supernatant is quantified. After separating 25-50 μg of protein using SDS-PAGE, samples are incubated with AR-V7, GR, PR, ERα, AR-FL, ubiquitin, or β-actin antibodies. For AR-V7, AR-FL, PR, GR, and ERα immunoblots, primary antibody is diluted 1:1000 in 5% skim milk. For the β-actin immunoblot, 1:10000 diluted primary antibody is used. All membranes are incubated overnight at 4° C. Following the incubation with appropriate secondary antibody, immunoblots are analyzed using SuperSignal West Femto Maximum Sensitivity Substrate (ThermoFisher).

22Rv1 [1] = test: 22Rv1 cell proliferation assay (Experimental Example 1, cell count); format: cell-based; conditions: Homo sapiens, 22Rv1, read-out: 22Rv1 cell count decrease at 10 μM for 48 hours; 10 μM (method: four days); read-out: 22Rv1 cell count decrease at 10 μM
Summary of the method: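 Human prostate cancer 22Rv1 cells, reported to express high levels of AR-V7, were grown in RPMI-1640 containing 10% fetal bovine serum. Test compounds were first dissolved in DMSO as 50 mM stock solutions and then diluted to the required concentrations. Proliferation was assessed as the percentage decrease in cell count.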

22Rv1 [2] = test: 22Rv1 cell proliferation assay (Experimental Example 3); format: cell-based, human; conditions: for 22Rv1 cell count, % of control: 6 days
Description: The human prostate cancer cell line, 22Rv1 has been reported to express a high level of AR-V7. […] Standard culture media was RPMI-1640 supplemented with 10% fetal bovine serum. The test compound initially was dissolved in DMSO at 50 mM. This stock solution was then diluted as needed for the indicated concentrations. […]
as §2

AR-V7 degradation after pretreatment with proteasome inhibitors (AR-V7; 22Rv1, 2 hours MG-132 (5 μM) and epoxomicin (1 μM), then compound at 1 μM) | DC50 (AR-V7; 22Rv1, 24 hours, immunoblot, read-out: DC50, concentration at which 50% of AR-V7 degraded in 24 hours) [nM] | concentration from which AR-V7 protein expression is decreased (immunoblot) (AR-V7; 22Rv1 cells, 24 hours, 0, 0.01, 0.1, 1 and 10 μM tested) [µM] | AR-V7 protein expression level in parental and SAT-resistant 22Rv1, VCaP and LNCaP cells (AR-V7; immunoblot, effect on AR-V7 greater than on AR-FL) | DC50 (AR-V7; 24 hours, immunoblot, read-out: DC50, concentration at which 50% of AR-V7 is degraded in 24 hours) [nM] | Compound | 22Rv1-EnzR cell count, % of control (22Rv1-Enz^R cells; 1 μM, 6 days) | effect on PC3 cells (PC3) | effect on proliferation of LNCaP (LNCaP) | AR-V7 degradation after pretreatment with E3 ubiquitin ligase inhibitors (AR-V7; 22Rv1, two hours VH 298 20 μM, heclin 10 μM, nutlin 3a 0.1 μM or thalidomide 10 μM, then compound at 1 μM) | inhibition at 10 µM (22Rv1 [1]) [%] | 22Rv1 cell count, % of control (22Rv1 [2]; 0.01 μM) | 22Rv1 cell count, % of control (22Rv1 [2]; 0.1 μM) | 22Rv1 cell count, % of the control (side to side cell line comparison) (22Rv1 [2]; 1 μM) | 22Rv1 cell count, % of control (22Rv1 [2]; 1 μM) | reduction of 22Rv1-Enz^R cell counts after pretreatment with MG-132 (22Rv1-Enz^R cells; 10 μM, 4 days, MG-132 (5 μM) pretreatment)
completely blocked | 370 | 0.1 | decreases the protein expression levels |  | Cc1ncsc1-c1ccc([C@H](C)NC(=O)[C@@H]2C[C@@H](O)CN2C(=O)[C@@H](NC(=O)CCCCNC(=O)COc2c(-c3csc(N4CCOCC4)n3)ccc(F)c2F)C(C)(C)C)cc1 [Example 16, (2S,4R)-1-((S)-2-(5-(2-(2,3-difluoro-6-(2-morpholinothiazol-4-yl)phenoxy)acetamido)pentanamido)-3,3-dimethylbutanoyl)-4-hydroxy-N-((S)-1-(4-(4-methylthiazol-5-yl)phenyl)ethyl)pyrrolidine-2-carboxamide] | about 45 % of control | not affected | inhibits the proliferation | only VH298 pretreatment inhibits AR-V7 degradation | < 50 | approximately 90 % of control | ~70 % of control | approximately 40 % of the control | ~65 % of control | 
 |  |  |  | < 50 | CN[C@@H](C)C(=O)N[C@H](C(=O)N1CCCC1C(=O)N[C@H](C(=O)NCCCCCCNC(=O)COc1c(-c2csc(N3CCOCC3)n2)ccc(F)c1F)C(c1ccccc1)c1ccccc1)C1CCCCC1 (stereo partly drawn) [Example 26, (S)-1-((S)-2-cyclohexyl-2-((S)-2-(methylamino)propanamido)acctyl)-N-((S)-1-((6-(2-(2,3-difluoro-6-(2-morpholinothiazol-4-yl)phenoxy)acetamido)hexyl)amino)-1-oxo-3,3-diphenylpropan-2-yl)pyrrolidine-2-carboxamide] (H-[NMeA][Chg][ξP][Dip]-X1) |  |  |  |  | > 50 |  |  |  |  | substantially blocked
